Assay results reported in patent publication US6126966A (Sequus Pharmaceuticals, Inc., priority 1999, dated 2000).

Legend:
[1] = preclinical studies; Weiss, et al., 1993; cited from earlier work
[2] = tested on: squamous cell cancer of the head and neck; settings: 80 mg/m^2, 24-hour intravenous infusion; Prestayko, 1991; cited from earlier work
C26 colon tumor = C26 colon tumor model, altered dosing schedule (FIG. 6); type: in vivo, mice (Balb/c, male); settings: IV, days 12, 19, 26, free cisplatin 6 mg/kg, liposomal 6, 12/4/4 or 14/4/4 mg/kg
Protocol: That is, liposome-entrapped cisplatin was administered with a larger loading dose followed by smaller doses at the second and third weeks.
The C26 colon tumor model was grown in Balb/c, male mice (Simonson Laboratories, Inc., Gilroy, Calif.). Tumors were harvested from donor mice for and minced finely in RPMI media with 10% fetal calf serum (FCS). Tumors were then digested with enzyme mix (10 ml 0.25% protease type IX and 0.25% collagenase type IV in Hank's balanced salt solution (HBSS) and 0.2% ml 0.02% DNase in HBSS) for 30-60 minutes at 37° C. Single cell suspension of tumor cells was washed twice in RPMI media with FCS, concentrated by centrifugation and resuspended in RPMI media with FCS for inoculation. One million tumor cells (0.1 ml) were inoculated in the left flank of 5-6 week old mice.
2. Altered Dosing Schedule. Mice were inoculated with the C26 colon tumor cells according to the above-described procedure. Treatment of the tumor-bearing mice was initiated when the majority of animals had palpable tumors mass of about 100 mm^3.
Cisplatin entrapped in liposomes, prepared as described above, was administered intravenously according to three dosing schedules to tumor-bearing mice. […] The control group (n=5) received saline on each treatment day.

Lewis lung carcinoma = assay: Lewis lung tumor model (FIG. 7); type: in vivo, mice (B6C3-F1, male); settings: days 7, 14, 21, free cisplatin 6 mg/kg, liposomal 12 mg/kg
Protocol: Mice bearing the Lewis lung carcinoma tumor model were treated with cisplatin, administered intravenously and intraperitoneally, or with liposome-entrapped cisplatin, administered similarly. […] A control group of tumor-bearing mice were treated with saline.
The Lewis lung tumor (LL/2, CRL-1642, ATCC, Rockville, Md.) model was grown in G6C3-F1, male mice (Simonson Laboratories, Inc., Gilroy, Calif.). Tumors were harvested from donor mice and processed as above for inoculation of an experiment. One million tumor cells (0.1 ml) were inoculated in the left flank of 5-6 week old, male, B6C3-F1 mice.
Treatment of the tumor-bearing animals was initiated seven days after inoculation, when the majority of animals had palpable tumor masses.
The control group (n=9) received saline on the treatment days (days 7, 14 and 21).

[3] = IV, once per week for 3 weeks, mice; cited from earlier work
[4] = Freise, et al., 1982; cited from earlier work
[5] = tested on: tumor models in laboratory animals and human tumors; settings: Sur 1983; Steerenberg 1987; cited from earlier work

Structure (SMILES) | antitumor activity relative to cisplatin [1] | nephrotoxicity relative to cisplatin [1] | clinical response [2] | tumor mass (C26 colon tumor) | antitumor response, IV vs IP administration (Lewis lung carcinoma) | maximally tolerated dose [3] [mg/kg] | excretion via the kidneys [4] | antitumor effectiveness [5]
N.N.O=C([O-])C1(C(=O)[O-])CCC1.[Pt+2] [carboplatin, 1,1-cyclobutane-dicarboxylate-diammineplatinum] | equivalent or greater antitumor activity than cisplatin | less nephrotoxicity | – | – | – | – | – | –
N.N.[Cl][Pt][Cl] [cisplatin, cis-diamine-dichloroplatinum (II)] | – | – | favorable response | continual increase in tumor mass | similar | 6 | rapid excretion via the kidneys | highly effective in the treatment of tumor models in laboratory animals and in human tumors
